Laboratory results published in patent US20080267996A1 (priority 2005, published 2008).

What was measured:
[1] = tested on: HBs peptide pools (PreS2 + S ayw) and HbsAg protein; assay: Ex vivo IFN-gamma ELISPOT of patient PBMC; assay type: in vivo, human; conditions: Part 2 Groups A, B, C
Method: ELISPOT Assays were carried out by Cellular Technology Limited (CTL Laboratory LLC. 10515 Carnegie Ave., Suite 503 Cleveland Ohio 44106, USA) using the following assay conditions:
The following peptides were pooled and used as antigens:
The HBs series of peptides are arranged into 4 distinct pools of peptides, each containing up to 12 total peptides:
The entire HbsAg protein was also used as an antigen.
An ELISPOT response to a peptide pool (or HbsAg protein) was considered to have occurred when the mean +/− standard deviation for the peptide pool, or HbsAg protein, was greater than the mean +3 standard deviations of that patient's negative control.

[2] = tested on: HBsAg; assay: HBsAg / Anti-HBs serotyping (VITROS ECi); assay type: in vivo, hepatitis B virus; conditions: Week 14/18; Part 2 Group C (n 11)
Method: Serotyping was performed using a VITROS ECi Immunodiagnostic System.

With `Nc1ccn([C@@H]2CS[C@H](CO)O2)c(=O)n1` [lamivudine, Lamivudine] the “baseline immunological responses (detected prior to treatment, unchanged or reduced)” value [1] was 3, the “boosted immunological responses (of baseline responses)” value [1] was 5/8 and the “de novo immunological responses (of baseline non-responders)” value [1] was 0/3. For the same compound, the “HBsAg−, percent of patients” value [2] was 9%.
